Here are results for 4 compounds from patent US11261136B2, “Triarylmethane compounds for controlling enzyme-induced urea decomposition” (priority 2017, dated 2022).

Read-outs that look alike come from different tables or passages of the source.

In series [1] the test system is urease enzyme. Nature of the series: Nitrogen volatilization of 50:50 urea:water solutions (gas trap and FIA instrument). The source says: Various concentrations of Catechol Violet paired with polymer, were examined utilizing the gas trap and FIA instrument at Alltech (Sparta, Ill.). Treatment replicates are shown across the horizontal axis, and percent Nitrogen concentration (expressed as ammonia that has volatilized) is given in the vertical axis. For FIGS. 1, 2, 4A, and 4B, the treatments proceed in number order along the horizontal axis, moving from left to right, with the left being the lowest treatment number and the right being the highest treatment number. For FIGS. 3A and 3B, the treatments proceed as described above, with the exception of treatment 7, which is the farthest right along the horizontal axis. Briefly, the lower the amount of volatilized nitrogen, the greater the inhibition of the activity of the urease enzyme.
Each set of treatments includes:
• 1) An untreated control (50:50 urea:water, w/w). […] Concentrations and details of each treatment are given in the following paragraphs. 7.1—Three Day Results of Catechol Violet Solutions (FIG. 1)

The conditions of series [2]: used with UAN; 87 trials and 487 comparisons; cited from earlier work.
The conditions of series [3]: cited from earlier work.
Series [4] concerns urease enzyme. Particulars: industry standard, added at 0.2% v/v of the urea solution; cited from earlier work.
Series [5] deals with urease (Canavalia ensiformis, UniProt P07374). The note with it: in solution; cited from earlier work.
Series [6] concerns the target T1, jackbean urease enzyme (Canavalia ensiformis, UniProt P07374).
T1 construct: purchased
The series is described as follows: biochemical. Particulars: pH 5. Here is the method:
(§1) An aqueous solution containing 0.105 moles/L of monosodium phosphate was adjusted to a pH of 5.0 with sodium hydroxide. Suitable quantities of a solution of 3,3′,4-trihydroxysuchsone-2″-sulfonic acid were added, with stirring, to 19.0 mL of the above phosphate solution, to give a series of mixtures having the following concentrations of sulfonic acid: 100, 250, 500, 750, 1000, 2000, and 5000 ppb. Next, commercial jackbean urease enzyme solution of known concentration was added to each mixture to provide 40 units of enzyme per 50 mL of the mixture. The mixtures were allowed to stand for 5 hours in closed glass containers at 20° C., followed by the addition to each mixture of 1.00 mL of freshly prepared urea solution (2.00 moles/L), to give an overall reaction concentration of 0.100 moles/L of both urea and phosphate. These mixtures, containing phosphate, sulfonic acid, urease, and urea were deemed A mixtures.
(§2) Simultaneously, two more solutions were identically prepared, namely an enzyme-free control where both 3,3′,4-trihydroxysuchsone-2″-sulfonic acid and enzyme are omitted (mixture B), and an enzyme control where enzyme is present without any 3,3′,4-trihydroxysuchsone-2″-sulfonic acid (mixture C). Solution urea concentrations were measured immediately in each of the mixtures, and again after a 120-minute interval.
(§3) For purposes of these tests, the C mixture containing urease and urea was deemed to provide 0% inhibition, whereas the B mixture containing urea without urease was deemed to provide 100% inhibition.

For series [7], the target named is T1, jackbean urease enzyme. Nature of the series: Jackbean urease inhibition, Example 1 repeated with buffer at pH 7. It counts as biochemical. Here is the method: as §1, §2, §3
Example 1 was repeated, but with the addition of a buffer to maintain a pH of 7.0 in all of the A, B, and C mixtures. The A mixtures contained the following amounts of the 3,3′,4-trihydroxysuchsone-2″-sulfonic acid: 100, 250, 500, 750, and 1000 ppb. It is known in the art that urease enzyme activity is greater and more difficult to inhibit at neutral pH, as compared with an acid pH, and that the much lower treatment levels would give less urease inhibition.

T1 sequence (P07374 whole entry, looked up): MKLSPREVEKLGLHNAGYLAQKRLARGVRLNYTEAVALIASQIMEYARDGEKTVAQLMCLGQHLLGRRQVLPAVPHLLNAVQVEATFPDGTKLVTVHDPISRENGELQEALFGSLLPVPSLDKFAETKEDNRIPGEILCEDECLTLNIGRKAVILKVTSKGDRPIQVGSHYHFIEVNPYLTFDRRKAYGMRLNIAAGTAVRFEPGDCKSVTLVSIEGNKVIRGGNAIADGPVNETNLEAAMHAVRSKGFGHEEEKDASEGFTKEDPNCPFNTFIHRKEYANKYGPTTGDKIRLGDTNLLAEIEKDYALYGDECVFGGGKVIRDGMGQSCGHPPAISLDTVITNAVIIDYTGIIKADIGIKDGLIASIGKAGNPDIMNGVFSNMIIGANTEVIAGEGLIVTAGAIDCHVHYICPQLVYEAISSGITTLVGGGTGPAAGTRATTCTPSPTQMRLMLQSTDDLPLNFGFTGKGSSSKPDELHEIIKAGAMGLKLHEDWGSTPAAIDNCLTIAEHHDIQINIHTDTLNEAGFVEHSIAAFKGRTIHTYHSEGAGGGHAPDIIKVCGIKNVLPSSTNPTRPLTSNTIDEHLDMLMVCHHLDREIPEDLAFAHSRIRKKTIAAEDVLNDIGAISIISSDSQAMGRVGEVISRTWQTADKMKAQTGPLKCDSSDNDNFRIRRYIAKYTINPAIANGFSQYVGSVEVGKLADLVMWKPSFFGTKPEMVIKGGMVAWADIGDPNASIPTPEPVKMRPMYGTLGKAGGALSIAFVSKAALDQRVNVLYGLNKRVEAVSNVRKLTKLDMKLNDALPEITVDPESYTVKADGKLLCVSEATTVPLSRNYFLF
Sequence of urease (P07374 whole entry, looked up): as above

Take `CCCCNP(N)(N)=S` [NBPT, N-(n-butyl) thiophosphoric triamide]: the “urease activity and N-loss through volatilization (FIGS. 3A and 3B)” value in series [1] (NBPT (Agrotain Ultra) 0.2% v/v, three and seven day test) is “inhibits urease activity and N-loss through volatilization”. For the same compound, in series [1] (after 7 days, compared to untreated urea solution), the “7-day N-loss via volatilization (FIG. 4B)” value is “continue to limit N-loss via volatilization when compared to the untreated urea solution”. The “average improvement in yield” value in series [2] is on record as “about 1.6 bushels/acre”. The “trials resulting in yield losses” value in series [2] was “about 40%”. Also, the “NBPT content lost on storage” value in series [3] (after six months) is given as “over 99%”; in series [3] (storage at 25° C. for three months) it was “up to 40%”. Also, the “inhibition of N-volatilization (historical)” value in series [4] was “near-total inhibition of N-volatilization”.
For the compound `O=C1C=CC(=O)C=C1` [benzoquinone], in series [5], the “concentration at which effective urease inhibitors” value is on record as “about 1 ppm by weight”.
The term inhibition denotes the percentage by which the read-out fell short of the control. With `O=C1C=C/C(=C(/c2ccc(O)c(O)c2)c2ccccc2S(=O)(=O)O)C=C1O` [3,3′,4-trihydroxysuchsone-2″-sulfonic acid], in series [6], testing at 0.1 ppm gave an inhibition of 7%, the inhibition at 0.25 ppm turned out to be 22%, testing at 0.5 ppm gave an inhibition of 25% and the inhibition at 0.75 ppm was determined as 45%. For the same compound, in series [6], the inhibition at 1 ppm came out at 61%, the inhibition at 2 ppm was found to be 76% and the inhibition at 5 ppm was 88%. In series [7], this compound showed an inhibition at 0.1 ppm of 2%, an inhibition at 0.25 ppm of 30%, an inhibition at 0.5 ppm of 41% and an inhibition at 0.75 ppm of 46%. This compound registered an inhibition at 1 ppm in series [7] of 50%.
On to `Oc1ccccc1O` [catechol], for which, in series [5], the “concentration at which effective urease inhibitors” value is given as “about 1 ppm by weight”.
